Assay: Combination therapy of antibiotic and COX-2 selective inhibitor administered to a mammal to treat or prevent a bacterial infection
Settings: pharmaceutically effective amount, administered together with a pharmaceutically effective amount of linezolid to a mammal

## CS(=O)(=O)c1ccc(C2=C(c3ccccc3)C(=O)OC2)cc1 [rofecoxib]
  side effects resulting from the administration of the antibiotic: reduced side effects
